The source of these data is patent US6861524B2, “Acyl and sulfonyl derivatives of 6,9-disubstituted 2-(trans-1,4-diaminocyclohexyl)-purines and their use as antiproliferative agents” (Aventis Pharmaceuticals Inc., priority 2000, dated 2005).

SMILES strings stand for the structures. Marks after values point to notes of the source that are not given here.

Data set [1] is described as follows: Red blood cell binding (RBC to plasma ratio), mouse whole blood. The format is in vitro ADME. The note with it: 30 minutes at 37° C., nominal 500 ng/ml, hematocrit 0.41. On the procedure: (§1) Compounds, including one positive control, are assessed for red blood cell (RBC) uptake, using a modified procedure based on the protocol reported in Sun, J. X. S., et al. High-performance liquid chromatographic analysis, plasma protein binding and red blood cell partitioning of phenprobamate. Biopharmaceutics and Drug Disposition, 8 (1987) 341-351.
(§2) Briefly, RBC uptake is evaluated by comparison of the levels in spiked plasma (n=3) and plasma isolated from spiked whole blood (n=3). Compounds are incubated with human and mouse whole blood, respectively, for 30 minutes at 37° C. using a nominal concentration of 500 ng/ml. Following centrifugation, the plasma is removed and submitted for analysis. Each compound is also spiked into blank plasma at a nominal concentration of 500 ng/ml, and submitted for analysis. Levels in the two plasma samples (Cp′ and Cp in the equation below) and the blood hematocrit are used to determine the red blood cell to plasma ratio (Crbc/Cp). [formula] In equation 1, Cp′ is the level of drug in the spiked “blank” plasma, Cp is the level of drug in the plasma of spiked whole blood, and H is the hematocrit. The hematocrit values are determined as 0.4 for human whole blood and 0.41 for mouse whole blood. The samples are analyzed with ESI LC/MS, using positive ion detection with an internal standard.
(§3) The red blood cell to plasma ratio is determined for each compound using equation 1. Tables 6 and 7 summarize the respective mean Crbc/Cp values and standard deviations for mouse and human whole blood, respectively, in descending order based on the red blood cell to plasma ratio, where “*” denotes Positive Control, and “ND” denotes Not Determined. MDL 108552 is included as a positive control for red blood cell uptake.

The nature of data set [2]: Plasma pharmacokinetics in mice after single intravenous cassette doses. Particulars: for Mean concentration in plasma / Mean Conc. in plasma / concentration at 0.083 h / concentration at 0.25 h / concentration at 0.5 h / concentration at 1 h / concentration at 3 h / concentration at 6 h / concentration at 8 h: mice; for Mean concentration in plasma: single 18 mg/kg intravenous cassette dose (Cassette #1); for concentration at 0.083 h / concentration at 0.25 h / concentration at 0.5 h / concentration at 1 h / concentration at 3 h / concentration at 6 h / concentration at 8 h / AUC(0-inf) / Cmax / half-life: male, Hsd:ICR (CD-1), mouse, plasma, 3 mg/kg; for concentration at 0.083 h / concentration at 0.25 h / concentration at 0.5 h / concentration at 1 h / concentration at 3 h / concentration at 6 h / concentration at 8 h: intravenous, Mean Conc. in plasma; for AUC(0-inf) / Cmax / half-life: iv; for AUC(0-inf): AUC0-∞; for Cmax: Cmax (highest measured value); for half-life: t1/2, λz.
Experimental: Male mice are given single intravenous cassette doses of CDK inhibitor compounds.
A single intravenous cassette dose (18 or 15 mg/kg free base) is administered. For each compound, this is equivalent to a dose of approx. 3 mg/kg free base. […] The dose is administered at a volume of 10 ml/kg (total volume of approximately 0.25 ml/animal).
Male mice (Hsd:ICR (CD-1® SD®), Harlan), each weighing approximately 20-30 g at the start of the study. […] Water is available ad libitum throughout the study.
A single cassette dose of 5-6 compounds is administered by bolus injection into the tail vein over a 10-15-second period. […] Whole blood (approximately 0.6 ml/sample) is obtained by cardiac puncture and transferred to 3 ml glass tubes containing 45 U sodium heparin.
Sample Processing: Plasma: Whole blood is centrifuged at approximately 3,200 rpm for 10 min at approximately 5° C. and the plasma (approx. 0.3 ml/sample) is transferred to chilled plastic vials and stored at approx. −70° C. until bioanalysis.
Sample Analysis: Concentrations of each test article in plasma are quantitated by a non-validated method based on LC/MS using the following protocol.
Samples are removed from the freezer, allowed to thaw at room temperature, and vortexed to insure complete homogenization prior to sample manipulation. Samples are then prepared according to the following scheme: • 1. transfer 48 μL of plasma (blank mouse sample) into a 12×75 mm test tube. • 2. add 12 μL of working standard to the blank plasma for standard curve preparation. • 3. […] Inject 25 μL on LC/MS. Chromatographic Conditions:
Data Analysis: Concentrations of Compounds in plasma of individual animals are determined by bioanalytics. […] Statistical analyses are limited to simple expressions of variation (mean and standard deviation). The plasma AUC (area-under-curve) is determined by the linear trapezoidal rule. […] All PK parameters are determined by noncompartmental methods using WinNonlin version 3.0 (Pharsight Corp).
The following information is based on a graph of the semi-log of the plasma concentration in ng/ml versus collection time in hours. • “Cmax” represents the maximum plasma concentration. • “t1/2” represents the half-life of the compound. • “AUC0-∞” represents the calculated area under the curve. • “AUC % Extrap(obs.)” represents the extrapolated area under the curve. • “Cls” is the clearance rate.

Data set [3] can be described thus: Red blood cell binding (RBC to plasma ratio), human whole blood. The format is in vitro ADME. Particulars: 30 minutes at 37° C., nominal 500 ng/ml. The protocol: as §1, §2, §3
[4] abbreviates: 24 h, BLQ = below assay quantification limit (approx. 1 ng/ml).
[5] abbreviates: Cassette #2, single 18 mg/kg iv cassette dose (3 mg/kg/compound), 8 h.
The mark [6] stands for this setting: Cassette #2, single 18 mg/kg iv cassette dose (3 mg/kg/compound), 24 h.
Where [7] appears, read: mouse plasma, iv Cassette #2, 3 mg/kg/compound (18 mg/kg total dose).
The mark [8] stands for this setting: mouse plasma, iv Cassette #3, 3 mg/kg/compound (15 mg/kg total dose).
Setting [9] is: mouse plasma, iv Cassette #4, 3 mg/kg/compound (15 mg/kg total dose).

Take `Cl.Cl.N[C@H]1CC[C@H](Nc2nc(NC3CCN(C(=O)c4cccc(C(F)(F)F)c4F)CC3)c3ncn(C4CCCC4)c3n2)CC1` [Compound 12, trans-1-{4-[2-(4-Amino-cyclohexylamino)-9-cyclopentyl-9H-purin-6-ylamino]-piperidin-1-yl}-1-(2-fluoro-3-trifluoromethyl-phenyl)-methanone dihydrochloride]: the “Mean Red Blood Cell to Plasma Ratio” value in data set [1] was 1.9; in data set [3], 3.6. Further, the “Mean concentration in plasma” value in data set [2] (setting [4]) was “BLQ”.

For `COC(=O)c1ccc(OC(=O)N2CCC(Nc3nc(N[C@H]4CC[C@H](N)CC4)nc4c3ncn4C3CCCC3)CC2)cc1.Cl.Cl` [Compound 83, trans-4-[2-(4-Amino-cyclohexylamino)-9-cyclopentyl-9H-purin-6-ylamino]-piperidine-1-carboxylic acid 4-methoxycarbonyl-phenyl ester dihydrochloride], the “Mean concentration in plasma” value in data set [2] (0.083 h) was 1515.7 ± 611.8 ng/mL; in data set [2] (0.25 h), 217.9 ± 92.8 ng/mL; in data set [2] (0.5 h), 61.3 ± 32.9 ng/mL; in data set [2] (1 h), 14.1^a ng/ml; in data set [2] (3 h), 4.1^a ng/ml; in data set [2] (6 h) it was 1.6^a ng/ml. Besides, the “Mean concentration in plasma” value is listed as 6.3^a ng/ml in data set [2] (8 h) and “BLQ” in data set [2] (setting [4]). In addition, the “Mean Red Blood Cell to Plasma Ratio” value in data set [3] is given as 4.1.

In the case of `CCOC(=O)c1ccc(NC(=O)N2CCC(Nc3nc(N[C@H]4CC[C@H](N)CC4)nc4c3ncn4C3CCCC3)CC2)cc1.Cl.Cl` [Compound 154, trans-4-[(1-{4-[2-(4-Amino-cyclohexylamino)-9-cyclopentyl-9H-purin-6-ylamino]-piperidine-1-yl}-methanoyl)-amino]-benzoic acid ethyl ester dihydrochloride], the “Mean Conc. in plasma” value in data set [2] (setting [5]) and in data set [2] (setting [6]) was “BLQ^a” in each case. Also, the “Mean Red Blood Cell to Plasma Ratio” value in data set [3] stood at 4.1.

With `NC1CCC(Nc2nc(NCCCc3ccccc3)c3ncn(C4CCCC4)c3n2)CC1` (centres unmarked) [MDL 107167, reference compound], the concentration at 0.083 h in data set [2] (Cassette #2, single 18 mg/kg iv cassette dose (3 mg/kg/compound), 0.083 h) was found to be 472 ng/mL; in data set [2] (Cassette #3, single 15 mg/kg iv cassette dose (3 mg/kg/compound), 0.083 h), 520 ± 69.3 ng/mL; in data set [2] (Cassette #4, single 15 mg/kg iv cassette dose (3 mg/kg/compound), 0.083 h) it was 567 ± 43.5 ng/mL. The concentration at 0.25 h came to 317 ng/mL in data set [2] (Cassette #2, single 18 mg/kg iv cassette dose (3 mg/kg/compound), 0.25 h); 324 ± 32.3 ng/mL in data set [2] (Cassette #3, single 15 mg/kg iv cassette dose (3 mg/kg/compound), 0.25 h); 491 ± 32.3 ng/mL in data set [2] (Cassette #4, single 15 mg/kg iv cassette dose (3 mg/kg/compound), 0.25 h). Also, the concentration at 0.5 h was found to be 266 ng/mL in data set [2] (Cassette #2, single 18 mg/kg iv cassette dose (3 mg/kg/compound), 0.5 h); 209 ± 24.1 ng/mL in data set [2] (Cassette #3, single 15 mg/kg iv cassette dose (3 mg/kg/compound), 0.5 h); 325 ± 13.6 ng/mL in data set [2] (Cassette #4, single 15 mg/kg iv cassette dose (3 mg/kg/compound), 0.5 h). Moreover, the concentration at 1 h in data set [2] (Cassette #2, single 18 mg/kg iv cassette dose (3 mg/kg/compound), 1 h) was determined as 133 ng/mL; in data set [2] (Cassette #3, single 15 mg/kg iv cassette dose (3 mg/kg/compound), 1 h) it was 108 ± 29.3 ng/mL; in data set [2] (Cassette #4, single 15 mg/kg iv cassette dose (3 mg/kg/compound), 1 h), 145 ± 9.5 ng/mL. The concentration at 3 h in data set [2] (Cassette #2, single 18 mg/kg iv cassette dose (3 mg/kg/compound), 3 h) was determined as 16.1 ± 1.4 ng/mL; in data set [2] (Cassette #3, single 15 mg/kg iv cassette dose (3 mg/kg/compound), 3 h), 23.5 ± 6.4 ng/mL; in data set [2] (Cassette #4, single 15 mg/kg iv cassette dose (3 mg/kg/compound), 3 h), 35.3 ± 8.3 ng/mL. Further, the concentration at 6 h amounted to 2.8 ± 0.4 ng/mL in data set [2] (Cassette #2, single 18 mg/kg iv cassette dose (3 mg/kg/compound), 6 h); 5 ± 0.5 ng/mL in data set [2] (Cassette #3, single 15 mg/kg iv cassette dose (3 mg/kg/compound), 6 h); 10.1 ± 3 ng/mL in data set [2] (Cassette #4, single 15 mg/kg iv cassette dose (3 mg/kg/compound), 6 h). The concentration at 8 h in data set [2] (setting [5]) stood at 1.6 ± 0.2 ng/mL; in data set [2] (Cassette #3, single 15 mg/kg iv cassette dose (3 mg/kg/compound), 8 h), 2.4 ± 1.7 ng/mL; in data set [2] (Cassette #4, single 15 mg/kg iv cassette dose (3 mg/kg/compound), 8 h) it was 3.7 ± 0.7 ng/mL. Moreover, the area under the curve AUC(0-inf) was 467 ng·h/mL in data set [2] (setting [7]), 452 ng·h/mL in data set [2] (setting [8]) and 627 ng·h/mL in data set [2] (setting [9]). Also, the Cmax in data set [2] (setting [7]) was found to be 472 ng/mL; in data set [2] (setting [8]) it was 520 ng/mL; in data set [2] (setting [9]), 567 ng/mL. Moreover, the half-life in data set [2] (setting [7]), in data set [2] (setting [8]) and in data set [2] (setting [9]) was 1.5 h each time. Moreover, the “Mean Conc. in plasma” value in data set [2] (setting [6]) was “BLQ”; in data set [2] (Cassette #3, single 15 mg/kg iv cassette dose (3 mg/kg/compound), 24 h), “BLQ”; in data set [2] (Cassette #4, single 15 mg/kg iv cassette dose (3 mg/kg/compound), 24 h), “BLQ”. Besides, the “Mean concentration in plasma” value in data set [2] (setting [4]) was “BLQ”. The “AUC0-∞” value in data set [2] (mouse plasma, iv Cassette #1, 3 mg/kg/compound (18 mg/kg total dose)) amounted to 532 ng·h/mL.
